In article PMC11820680, “Synthesis of (1,10-Phenanthroline-κ^2N,N′)(β^2-Methyl- and β^2-PhenylAlaninate-κ^2N,O)Copper(II) Nitrate Complexes and Their Antiproliferative Activity on MCF-7 and A549 Cancer Cell Lines” (Molecules, 2025):
Like-named read-outs stand apart in the source and are kept apart here.

Experiments:
[1] = system: A549, MCF-7, HEK293, and HaCaT cell cultures; assay: Acridine orange / propidium iodide staining, epifluorescence microscopy; format: cell-based
Excerpt: The purpose of using acridine orange (AO) and propidium iodide (PI) is to take advantage of their introduction of viable cells (AO) and non-viable cells (AO/PI) by their intercalating ability in DNA of cells, which by excitation with a wavelength of 400 nm emit radiation of lower energy and longer wavelength (green and red light, respectively). This technique allows differentiating the distinct states in which a cell is found; AO is able to cross the cell membrane regardless of its membrane integrity, so the compound stains all cells, emitting green light and, in some cases, orange if it binds to RNA or where there is high lysosomal activity. PI penetrates the cell when its membrane is damaged by intercalating with higher affinity to DNA and emits red color, eclipsing the intensity caused by AO staining. Briefly, the protocol used for this technique was: 0.5×10^6 cells/mL of A549, MCF-7, HEK293, and HaCaT cells were seeded in 24-well plates on round glass coverslips. All cell cultures were treated with complexes 3 and 4 with the IC50 calculated previously. At 12 h, the coverslips were removed from the wells. Later, 5 μL of a 1:1 mixture of the dyes (50 μg/mL of AO and 100 μg/mL of PI) was added to 5 μL of sample and coverslips were flipped and placed on a slide for observation.

[2] = system: A549, MCF-7, HEK293, and HaCaT cell cultures; assay: Nuclei staining with Hoechst 33258; format: cell-based
Excerpt: Hoechst dyes are excited by UV light (~360 nm) and emit a broad spectrum of blue light with a maximum at 460 nm. Upon binding to DNA, they increase their fluorescence 30-fold, which ensures a good signal-to-noise ratio. This increase in fluorescence is due to the suppression of rotational relaxation and reduced hydration upon binding to DNA. These dyes are not intercalating; they bind to the minor groove of the DNA in the A-T rich regions. Hoechst dyes are often used to distinguish condensed pyknotic nuclei in apoptotic cells. Briefly, the Hoechst dye stock solution was prepared by dissolving the contents of one vial (100 mg) in 10 mL of deionized water to create a 10 mg/mL (16.23 mM) solution. Then, 5×10^5 cells/mL of A549, MCF-7, HEK293, and HaCaT cells were seeded in 24-well plates on round glass coverslips. Cell cultures were treated with the complexes 3 and 4 using the IC50 calculated previously. At 12 h, the coverslips were removed from the wells. Cells were fixed by adding 200 μL of 4% paraformaldehyde. Later, cells were incubated at 37 °C for 30 min and washed 2 times with PBS. Then, 200 μL Hoechst 33258 (1:1000) was added to the sample and protected from light following incubation at room temperature for 30 min. Subsequently, they were washed 2 times with PBS.

[3] = system: A549, MCF-7, HEK293, and HaCaT cell cultures; assay: DNA fragmentation assay (agarose gel); format: cell-based
Excerpt: DNA fragmentation is a characteristic process of apoptosis. During apoptosis, cell DNA is broken into fragments of specific sizes (multiples of 180–200 bp) due to the action of nucleases activated by effector caspases (caspase-3, caspase-7, and caspase-6). To visualize DNA fragmentation on agarose gels, cultures of MCF-7, A549, HEK293, and HaCaT cells treated with complexes 3 and 4 were harvested under the same conditions as the acridine orange/propidium iodide assay and their nuclei stained. Cell cultures were treated with complexes 3 and 4 using the IC50 calculated previously. Cultures were harvested and centrifuged at 12,000 rpm; pellets were washed twice with PBS and resuspended in lysis buffer (10 mM Tris-HCl (pH 7.4), 5 mM EDTA, 0.2% Triton X-100) with RNase and incubated for 1 h at 37 °C. […]. Proteinase K was then added and incubated for 2 h at 55 °C. Extraction was performed with phenol:chloroform:isoamyl. To precipitate DNA, 96% ethanol, 10 M ammonium acetate, and glycogen were added. Finally, the samples were resuspended in 1X Buffer TE and stored at −20 °C. DNA was electrophoretically separated on a 2% agarose gel with ethidium bromide and visualized by UV transillumination.

[4] = system: A549, MCF-7, HEK293, and HaCaT cell cultures; assay: Apoptosis detection with annexin V FITC and propidium iodide; format: cell-based; conditions: at IC50, 12 h
Experimental: Annexin V detects apoptosis by binding to phosphatidylserine, which during this process is exposed in the outer layer of the cell membrane. Its conjugation with fluorochromes such as FITC allows visualization of this binding by epifluorescence microscopy in the green channel. The detection of apoptosis was determined with the annexin V kit conjugated with the fluorophore FITC (Thermo, cat. 88-8005-72) under the following protocol: 0.5 × 10^6 cells/mL of A549, MCF-7, HEK293, and HaCaT cells were seeded in 24-well plates on round glass coverslips treated with L-polylysine. […] Cultures were incubated for 12 h under standard culture conditions. Subsequently, the cells were washed with 500 μL of cold PBS and incubated for 5 min in a 1X solution of annexin-binding buffer. Next, 15 μL of annexin V conjugate and 5 μL of propidium iodide (PI) were added, and the mixture was incubated over 15 min at room temperature. After washing with 1X buffer, the cells were observed using an epifluorescence microscope (Nikon Eclipse E400). The red channel (TRITC) identified necrosis due to PI intercalation, while the green channel (FITC) detected apoptosis through binding of the phosphatidylserine–annexin V complex.

HEK293 [5] = system: HEK293; design: method as in doi:10.1016/j.ica.2020.119542; conditions: value taken from previous work ref 16; cited from earlier work
HaCaT [6] = system: HaCaT; design: method as in doi:10.1016/j.ica.2020.119542; conditions: value taken from previous work ref 16; cited from earlier work
A549 (lung cancer) [7] = system: A549 (lung cancer); design: method as in doi:10.1016/j.ica.2020.119542; conditions: value taken from previous work ref 16; cited from earlier work
MCF-7 (breast cancer) [8] = system: MCF-7 (breast cancer); design: method as in doi:10.1016/j.ica.2020.119542; conditions: value taken from previous work ref 16; cited from earlier work
[9] = system: A549, MCF-7, HaCaT and HEK293 cell lines; conditions: previously calculated value for the cell lines evaluated; cited from earlier work
HEK293 [10] = conditions: HEK293, 24 h, MTS
HaCaT [11] = conditions: 24 h, MTS
A549 (lung cancer) [12] = conditions: for IC50: A549, 24 h, MTS; for Selectivity Index (SI): IC50(HaCaT)/IC50(A549)
MCF-7 (breast cancer) [13] = conditions: for IC50: MCF-7, 24 h, MTS; for Selectivity Index (SI): IC50(HaCaT)/IC50(MCF-7)
[14] = system: A549, MCF-7, HaCaT and HEK293 cell lines; conditions: for IC50: all the cell lines tested; for increase in potency over cisplatin: considering the concentrations used to determine the IC50
[15] = complexes at IC50 of Table 5, 12 h

Molecule	morphology, AO/PI staining ([1]; cisplatin 25 µM)	nuclear morphology, Hoechst 33258 ([2]; cisplatin 25 µM)	DNA fragmentation pattern ([3]; cisplatin 25 µM)	annexin V-FITC / PI fluorescence [4]	IC50 (HEK293 [5])	IC50 (HaCaT [6])	IC50 (A549 (lung cancer) [7])	IC50 (MCF-7 (breast cancer) [8])	IC50 [9]	IC50 (HEK293 [10])	IC50 (HaCaT [11])	IC50 (A549 (lung cancer) [12])	IC50 (MCF-7 (breast cancer) [13])	morphology, AO/PI staining ([1]; complexes at IC50, 12 h)	nuclear morphology, Hoechst 33258 [2, 15]	DNA fragmentation pattern ([3]; complexes at IC50 of Table 5)	Selectivity Index (SI) (A549 (lung cancer) [12])	Selectivity Index (SI) (MCF-7 (breast cancer) [13])	IC50 [14]	increase in potency over cisplatin [14]
N.N.[Cl][Pt][Cl] [Cisplatin, cis-[PtCl2(NH3)2]]	show red nuclei, indicating a decrease in cell viability	evident change in nuclear structure	DNA fragmentation is observed	intense signal in the green channel (FITC)	25 µM	25 µM	25 µM	25 µM	25 µM	–	–	–	–	–	–	–	–	–	–	–
O=[N+]([O-])[O-].O=[N+]([O-])[O-].[Cu+2] [Cu(NO3)2, Copper(II) nitrate]	–	–	–	–	–	–	–	–	–	47600 ± 3220 nM	55500 ± 2030 nM	47800 ± 3220 nM	70200 ± 2030 nM	–	–	–	–	–	–	–
Aqua(1,10-phenanthroline-κ^2N,N’)(β^2-methylalaninate-κ^2N,O)copper(II) nitrate [Compound 3]	–	–	–	significant induction of apoptosis	–	–	–	–	–	190 ± 10 nM	210 ± 20 nM	240 ± 20 nM	350 ± 20 nM	induced morphological features that, in principle, indicate a cell death process	decrease in the size of the nuclei, irreversible chromatin condensation, and nuclear fragmentation	specific indication of an apoptotic process	0.875	0.6	< 1000 nM	83 times
ethanol(1,10-phenanthroline-κ^2N,N’)(β^2-phenylalaninate-κ^2N,O)copper(II) nitrate [Compound 4]	–	–	–	significant induction of apoptosis	–	–	–	–	–	320 ± 20 nM	350 ± 90 nM	220 ± 50 nM	400 ± 20 nM	induced morphological features that, in principle, indicate a cell death process	decrease in the size of the nuclei, irreversible chromatin condensation, and nuclear fragmentation	specific indication of an apoptotic process	1.59	0.87	< 1000 nM	83 times
